Data taken from patent EP1510220B1 (priority 1993, dated 1994).

System: Vascular smooth muscle cells (BO54)
Test: Scratch-migration assay with morphological toxicity grading
Type: cell-based, baboon
Parameters: key to Migration Grade in the Cleared Area of the Well / Migration Grade in an Undisturbed Region of the Well: - = no migration; +1 = minimal; +2 = mild; +3 = moderate; +4 = marked (maximum density; limit of cell contact inhibition) migration
Description: Scratch assays to determine the extent of smooth muscle cell migration inhibition by cytochalasin B were performed in accordance with the following protocol:
Vascular smooth muscle cells (BO54) were derived from explants of baboon aortic smooth muscle, as described in Example 1. The cells were grown in flat bottom, six well tissue culture plates, which hold about 5 ml of medium. The vascular smooth muscle cells were plated at 200,000 cells/well and placed at 37°C in a humidified 5% CO2 incubator for 18 hours. The wells were then scratched with a sterile portion of a single edge razor blade that was held by clamp or pliers and was brought aseptically into contact with the bottom of the well at a 90° angle. The cells from a small area along the scratch were removed by a sterile cotton tipped applicator while the blade was in contact with the bottom of the well. After incubation, the presence of cells in the "scratched" area is indicative of cell migration across the scratch line.
Briefly, a stock solution of cytochalasin B (Sigma Chemical Co.) in dimethyl sulfoxide (DMSO) at 1 mg/ml was prepared. Test dilutions of cytochalasin B or control medium were added. Each experiment included two sets of plates: • A set: Test agent exposure for 1, 3, 6, 8 and 10 days only; and • B set: Test agent exposure for 1, 3, 6, 8 and 10 days, followed by a seven day recovery time with control medium. Both sets of plates were fixed (10% formalin in PBS) and stained (0.02% crystal violet) at the end of the timed exposures. Test concentrations for cytochalasin B were 1, 0.1 and 0.01 µg/ml, and a negative medium control was included. Fresh medium and drug were supplied 3 times per week.
In this Table, "M" indicates Migration Grade, wherein - = no migration; +1 = minimal; +2 = mild; +3 = moderate; and +4 = marked (maximum density; limit of cell contact inhibition) migration of vascular smooth muscle cells into the cleared area adjacent to the scratch. In this Table, "T" denotes a morphological Toxicity Grade, wherein - = no toxicity; +1 = minimal; +2 = mild; +3 = moderate; and +4 = marked toxicity. The migration results are expressed as "Grade in the Cleared Area of the Well / Grade in an Undisturbed Region of the Well." The toxicity values represent a grade for all cells in each well.

[1] = 7-day Recovery Post Exposure, 0.01 µg/mL, Day 1
[2] = 7-day Recovery Post Exposure, 0.01 µg/mL, Day 3
[3] = 7-day Recovery Post Exposure, 0.01 µg/mL, Day 6
[4] = 7-day Recovery Post Exposure, 0.01 µg/mL, Day 8
[5] = 7-day Recovery Post Exposure, 0.01 µg/mL, Day 10
[6] = 7-day Recovery Post Exposure, 0.1 µg/mL, Day 1
[7] = 7-day Recovery Post Exposure, 0.1 µg/mL, Day 3
[8] = 7-day Recovery Post Exposure, 0.1 µg/mL, Day 6
[9] = 7-day Recovery Post Exposure, 0.1 µg/mL, Day 8
[10] = 7-day Recovery Post Exposure, 0.1 µg/mL, Day 10
[11] = 7-day Recovery Post Exposure, 1.0 µg/mL, Day 1
[12] = 7-day Recovery Post Exposure, 1.0 µg/mL, Day 3
[13] = 7-day Recovery Post Exposure, 1.0 µg/mL, Day 6
[14] = 7-day Recovery Post Exposure, 1.0 µg/mL, Day 8
[15] = 7-day Recovery Post Exposure, 1.0 µg/mL, Day 10
[16] = Continuous Exposure, 0.01 µg/mL, Day 1
[17] = Continuous Exposure, 0.01 µg/mL, Day 3
[18] = Continuous Exposure, 0.01 µg/mL, Day 6
[19] = Continuous Exposure, 0.01 µg/mL, Day 8
[20] = Continuous Exposure, 0.01 µg/mL, Day 10
[21] = Continuous Exposure, 0.1 µg/mL, Day 1
[22] = Continuous Exposure, 0.1 µg/mL, Day 3
[23] = Continuous Exposure, 0.1 µg/mL, Day 6
[24] = Continuous Exposure, 0.1 µg/mL, Day 8
[25] = Continuous Exposure, 0.1 µg/mL, Day 10
[26] = Continuous Exposure, 1.0 µg/mL, Day 1
[27] = Continuous Exposure, 1.0 µg/mL, Day 3
[28] = Continuous Exposure, 1.0 µg/mL, Day 6
[29] = Continuous Exposure, 1.0 µg/mL, Day 8
[30] = Continuous Exposure, 1.0 µg/mL, Day 10

## cytochalasin B
0.1 µg/ml, even after 10 days of continuous exposure
  ability to migrate following removal of the therapeutic agent (grade): +3 to +4
0.1 µg/ml, summary of Table 1
  migration of vascular smooth muscle cells into the cleared area adjacent to the scratch (grade): +1 to +2
[1]
  Migration Grade in an Undisturbed Region of the Well: +4
  Migration Grade in the Cleared Area of the Well: +3
[2]
  Migration Grade in an Undisturbed Region of the Well: +4
  Migration Grade in the Cleared Area of the Well: +3
[3]
  Migration Grade in an Undisturbed Region of the Well: +4/+4
  Migration Grade in the Cleared Area of the Well: +4/+4
[4]
  Migration Grade in an Undisturbed Region of the Well: +4/+4
  Migration Grade in the Cleared Area of the Well: +4/+4
[5]
  Migration Grade in an Undisturbed Region of the Well: +4/+4
  Migration Grade in the Cleared Area of the Well: +4/+4
[6]
  Migration Grade in an Undisturbed Region of the Well: +4
  Migration Grade in the Cleared Area of the Well: +3
[7]
  Migration Grade in an Undisturbed Region of the Well: +4
  Migration Grade in the Cleared Area of the Well: +3
[8]
  Migration Grade in an Undisturbed Region of the Well: +4
  Migration Grade in the Cleared Area of the Well: +3
[9]
  Migration Grade in an Undisturbed Region of the Well: +4
  Migration Grade in the Cleared Area of the Well: +3
[10]
  Migration Grade in an Undisturbed Region of the Well: +4/+4
  Migration Grade in the Cleared Area of the Well: +4/+4
[11]
  Migration Grade in an Undisturbed Region of the Well: +3
  Migration Grade in the Cleared Area of the Well: +2
[12]
  Migration Grade in an Undisturbed Region of the Well: +3
  Migration Grade in the Cleared Area of the Well: +2
[13]
  Migration Grade in an Undisturbed Region of the Well: +3
  Migration Grade in the Cleared Area of the Well: +2
[14]
  Migration Grade in an Undisturbed Region of the Well: +3
  Migration Grade in the Cleared Area of the Well: +2
[15]
  Migration Grade in an Undisturbed Region of the Well: +3
  Migration Grade in the Cleared Area of the Well: +2
[16]
  Migration Grade in an Undisturbed Region of the Well: +3
  Migration Grade in the Cleared Area of the Well: +1
[17]
  Migration Grade in an Undisturbed Region of the Well: +4
  Migration Grade in the Cleared Area of the Well: +3
[18]
  Migration Grade in an Undisturbed Region of the Well: +4
  Migration Grade in the Cleared Area of the Well: +3
[19]
  Migration Grade in an Undisturbed Region of the Well: +4
  Migration Grade in the Cleared Area of the Well: +3
[20]
  Migration Grade in an Undisturbed Region of the Well: +4
  Migration Grade in the Cleared Area of the Well: +3
[21]
  Migration Grade in an Undisturbed Region of the Well: +3
  Migration Grade in the Cleared Area of the Well: +1
[22]
  Migration Grade in an Undisturbed Region of the Well: +4
  Migration Grade in the Cleared Area of the Well: +1
[23]
  Migration Grade in an Undisturbed Region of the Well: +4
  Migration Grade in the Cleared Area of the Well: +2
[24]
  Migration Grade in an Undisturbed Region of the Well: +4
  Migration Grade in the Cleared Area of the Well: +2
[25]
  Migration Grade in an Undisturbed Region of the Well: +4
  Migration Grade in the Cleared Area of the Well: +2
[26]
  Migration Grade in an Undisturbed Region of the Well: +2
  Migration Grade in the Cleared Area of the Well: -
[27]
  Migration Grade in an Undisturbed Region of the Well: +2
  Migration Grade in the Cleared Area of the Well: -
[28]
  Migration Grade in an Undisturbed Region of the Well: +2
  Migration Grade in the Cleared Area of the Well: -
[29]
  Migration Grade in an Undisturbed Region of the Well: +2
  Migration Grade in the Cleared Area of the Well: -
[30]
  Migration Grade in an Undisturbed Region of the Well: +2
  Migration Grade in the Cleared Area of the Well: -
